Target: Phospholipase A2 (Homo sapiens, UniProt P04054)
Test: phospholipase A2 activity inhibition – biochemical, set 2, counter-screen for ATG4B inhibitor project, dose response (AID 588586)

Chain of Phospholipase A2 (P04054 whole entry): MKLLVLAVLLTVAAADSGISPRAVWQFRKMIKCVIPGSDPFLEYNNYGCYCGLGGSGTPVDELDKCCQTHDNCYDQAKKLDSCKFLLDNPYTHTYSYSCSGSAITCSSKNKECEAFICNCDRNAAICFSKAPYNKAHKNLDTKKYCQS

| IC50 [µM] | Compound |
| --- | --- |
| 22.3 | Cc1ccc(NC2=NC(=O)C(=Cc3c(C)[nH]c4ccccc34)S2)cc1 [5-[(2-methyl-1H-indol-3-yl)methylene]-2-[(4-methylphenyl)imino]-1,3-thiazolidin-4-one] |
| 2.47 | Oc1ccc2ccccc2c1CN=Nc1nnc(-c2ncc[nH]2)c2ccccc12 [SMR000151639] |
| 10.5 | CC1=CC(/C=N/n2c(COc3ccccc3)nc3ccccc3c2=O)C(=O)C([N+](=O)[O-])=C1 (stereo not drawn) [3-[[(E)-(3-methyl-5-nitro-6-oxocyclohexa-2,4-dien-1-ylidene)methyl]amino]-2-(phenoxymethyl)quinazolin-4-one] |

— BindingDB's records for doi:10.7270/Q2X34VZF (Burnham Center For Chemical Genomics, 2011)
